Measured values as given in patent US7964647B2 (Mutual Pharmaceutical Company, Inc., priority 2007, dated 2011).

Tested on: patients with acute gout flare (acute gouty arthritic attack)
Experiment: Multicenter, randomized, double-blind, placebo-controlled dose comparison study in acute gout flare: efficacy (target joint pain)
Assay type: in vivo, human
Conditions: for Difference between treatment groups in mean change from baseline in target joint pain, High vs. Low / Difference between treatment groups in mean change from baseline in target joint pain, High vs. Placebo / Difference between treatment groups in mean change from baseline in target joint pain, Low vs. Placebo / Change from baseline in target joint pain, Mean / Change from baseline in target joint pain, Median / Difference between treatment groups in mean change from baseline in target joint pain score at 24 hours, High vs. Low / Difference between treatment groups in mean change from baseline in target joint pain score at 24 hours, High vs. Placebo / Difference between treatment groups in mean change from baseline in target joint pain score at 24 hours, Low vs. Placebo: LOCF, ITT
Excerpt: A sufficient number of patients are screened to enroll and randomize 300 patients (100 patients per treatment group) who meet the criteria of the American College of Rheumatology (ACR) for acute arthritis of gout.
Efficacy assessment will be made based on patient and Investigator inputs. Patients will record pain severity and sleep interference on a study diary. The severity of pain for each joint affected by the acute gouty arthritic attack will be rated on an 11-point pain intensity numerical rating scale (PI-NRS) that ranges from 0 (“no pain”) to 10 (“worst possible pain”). […] Investigators will provide clinical assessments in the clinic at all Post-Flare Phase study visits, and at medically necessary intervening visits. For these assessments, each of the patient's joints affected by the acute gouty arthritic attack will be examined and signs and symptoms of inflammation will be rated (erythema [absent, present, or not assessable], swelling [0, “none” to 3, “severe”], and tenderness to touch [0, “none” to 3, “severe”]).
The target joint is identified during data analysis as that joint affected by the acute gout flare with the highest baseline pain score on the patient diary. Ties among maximum joint scores for an individual are resolved by random selection.
The secondary efficacy variables are assessments of magnitude of pain reduction, time to response, time to complete pain relief, and interference with sleep as recorded on patient diaries by the patient. Signs and symptoms of inflammation per Investigator's clinical assessments of the target joint are evaluated. Time to drop out (use of rescue medications) is also evaluated. Investigator global assessment of response to treatment is assessed.
Analyses will also be made on an Evaluable patient population with an Evaluable patient defined as one who, in addition to being included in the PP population, completed the randomized treatment course. The ITT population will be used for the evaluation of safety.
Statistical tests for efficacy analysis are two-tailed with an alpha significance level of 0.05.
The sensitivity to alternate definitions of response (based both on magnitude of reduction from baseline as well as time point) will be evaluated as secondary endpoints. As additional sensitivity analyses, these tests will also be repeated for the PP and Evaluable populations if the sample sizes differ from the overall ITT population by more than 10%.
Change in pain intensity, interference with sleep, time to 50% reduction in pain, and time to complete pain relief will be analyzed as continuous variables using analysis of covariance with study site, treatment group, and site by treatment interaction as independent variables for change in pain intensity and interference with sleep, with baseline score as a covariate. For the Investigator's clinical assessment of inflammation (erythema, swelling, and tenderness to touch) and Investigator's global assessment of response to treatment, the treatment groups will be compared using the Mantel-Haenszel chi-square test stratified on study site.

[1] = 24 hours post first dose, High dose 4.8 mg, N = 52
[2] = 24 hours post first dose, Low dose 1.8 mg, N = 74
[3] = 32 hours post first dose, High dose 4.8 mg, N = 52
[4] = 32 hours post first dose, Low dose 1.8 mg, N = 74
[5] = Early treatment start (within 4 hours)
[6] = Early treatment start (within 4 hours), High dose 4.8 mg
[7] = Early treatment start (within 4 hours), Low dose 1.8 mg
[8] = Hour 24, High dose 4.8 mg, n = 51
[9] = Hour 24, Low dose 1.8 mg, n = 74
[10] = Hour 32, High dose 4.8 mg, n = 51
[11] = Hour 32, Low dose 1.8 mg, n = 74
[12] = Late treatment start (after 4 hours)
[13] = Late treatment start (after 4 hours), High dose 4.8 mg
[14] = Late treatment start (after 4 hours), Low dose 1.8 mg

Compound: COc1cc2c(c(OC)c1OC)-c1ccc(OC)c(=O)cc1[C@@H](NC(C)=O)CC2 [Colchicine, (−)-N-[(7S,12aS)-1,2,3,10-tetramethoxy-9-oxo-5,6,7,9-tetrahydrobenzo[a]heptalen-7-yl]-acetamide]
- Difference between treatment groups in mean change from baseline in target joint pain, High vs. Low (24 hours post first dose): 0.2
- Difference between treatment groups in mean change from baseline in target joint pain, High vs. Placebo (24 hours post first dose): −1.3
- Difference between treatment groups in mean change from baseline in target joint pain, Low vs. Placebo (24 hours post first dose): −1.5
- Change from baseline in target joint pain, Mean [1]: −2.0
- Change from baseline in target joint pain, Median [1]: −2.0
- Change from baseline in target joint pain, Mean [2]: −2.2
- Change from baseline in target joint pain, Median [2]: −2.0
- Number (%) of responders, at least a 2-unit reduction in target joint pain score [1]: 18 (34.6) Number (%)
- Number (%) of responders, at least a 2-unit reduction in target joint pain score [2]: 32 (43.2) Number (%)
- Difference between treatment groups in mean change from baseline in target joint pain, High vs. Low (32 hours post first dose): 0.1
- Difference between treatment groups in mean change from baseline in target joint pain, High vs. Placebo (32 hours post first dose): −1.6
- Difference between treatment groups in mean change from baseline in target joint pain, Low vs. Placebo (32 hours post first dose): −1.6
- Change from baseline in target joint pain, Mean [3]: −2.3
- Change from baseline in target joint pain, Median [3]: −2.0
- Change from baseline in target joint pain, Mean [4]: −2.4
- Change from baseline in target joint pain, Median [4]: −2.5
- Number (%) of responders, at least a 2-unit reduction in target joint pain score [3]: 20 (38.5) Number (%)
- Number (%) of responders, at least a 2-unit reduction in target joint pain score [4]: 34 (45.9) Number (%)
- Difference between treatment groups in mean change from baseline in target joint pain score at 24 hours, High vs. Low [5]: 0.2
- Difference between treatment groups in mean change from baseline in target joint pain score at 24 hours, High vs. Placebo [5]: −1.3
- Difference between treatment groups in mean change from baseline in target joint pain score at 24 hours, Low vs. Placebo [5]: −1.5
- Change from baseline in target joint pain score at 24 hours post first dose, Mean [6]: −2.0
- Change from baseline in target joint pain score at 24 hours post first dose, Median [6]: −2.0
- Change from baseline in target joint pain score at 24 hours post first dose, Mean [7]: −2.2
- Change from baseline in target joint pain score at 24 hours post first dose, Median [7]: −2.0
- Number of responders (>=50% reduction in target joint pain score, no rescue medication) at 24 hours post first dose (High (standard) dose 4.8 mg over 6 h, N = 52, ITT): 17 (32.7) N (%)
- Number (%) of patients using rescue medication up to and including the 24-hour post first dose assessment (High dose 4.8 mg, N = 52): 18 (34.6) n (%)
- Patients with >=0% improvement in target joint pain score at 24 hours post first dose (High dose 4.8 mg, N = 52): 52 (100.0%)
- Patients with >=10% improvement in target joint pain score at 24 hours post first dose (High dose 4.8 mg, N = 52): 32 (61.5%)
- Patients with >=20% improvement in target joint pain score at 24 hours post first dose (High dose 4.8 mg, N = 52): 29 (55.8%)
- Patients with >=30% improvement in target joint pain score at 24 hours post first dose (High dose 4.8 mg, N = 52): 21 (40.4%)
- Patients with >=40% improvement in target joint pain score at 24 hours post first dose (High dose 4.8 mg, N = 52): 21 (40.4%)
- Patients with >=50% improvement in target joint pain score at 24 hours post first dose (High dose 4.8 mg, N = 52): 19 (36.5%)
- Patients with >=60% improvement in target joint pain score at 24 hours post first dose (High dose 4.8 mg, N = 52): 15 (28.8%)
- Patients with >=70% improvement in target joint pain score at 24 hours post first dose (High dose 4.8 mg, N = 52): 10 (19.2%)
- Patients with >=80% improvement in target joint pain score at 24 hours post first dose (High dose 4.8 mg, N = 52): 9 (17.3%)
- Patients with >=90% improvement in target joint pain score at 24 hours post first dose (High dose 4.8 mg, N = 52): 6 (11.5%)
- Patients with >=100% improvement in target joint pain score at 24 hours post first dose (High dose 4.8 mg, N = 52): 6 (11.5%)
- Total Pain Relief (TOTPAR) based on all target joint pain scores, Mean [8]: 20.9
- Total Pain Relief (TOTPAR) based on all target joint pain scores, Median [8]: 11.5
- Total Pain Relief (TOTPAR) based on all target joint pain scores, Mean [9]: 30.5
- Total Pain Relief (TOTPAR) based on all target joint pain scores, Median [9]: 23.0
- Total Pain Relief (TOTPAR) based on all target joint pain scores, Mean [10]: 31.9
- Total Pain Relief (TOTPAR) based on all target joint pain scores, Median [10]: 27.5
- Total Pain Relief (TOTPAR) based on all target joint pain scores, Mean [11]: 45.5
- Total Pain Relief (TOTPAR) based on all target joint pain scores, Median [11]: 34.1
- Difference between treatment groups in mean change from baseline in target joint pain score at 24 hours, High vs. Low [12]: 0.1
- Difference between treatment groups in mean change from baseline in target joint pain score at 24 hours, High vs. Placebo [12]: −1.6
- Difference between treatment groups in mean change from baseline in target joint pain score at 24 hours, Low vs. Placebo [12]: −1.6
- Change from baseline in target joint pain score at 24 hours post first dose, Mean [13]: −2.3
- Change from baseline in target joint pain score at 24 hours post first dose, Median [13]: −2.0
- Change from baseline in target joint pain score at 24 hours post first dose, Mean [14]: −2.4
- Change from baseline in target joint pain score at 24 hours post first dose, Median [14]: −2.5
- Number of responders (>=50% reduction in target joint pain score, no rescue medication) at 24 hours post first dose (Low dose 1.8 mg over 1 h, N = 74, ITT): 28 (37.8) N (%)
- Number (%) of patients using rescue medication up to and including the 24-hour post first dose assessment (Low dose 1.8 mg, N = 74): 23 (31.1) n (%)
- Patients with >=0% improvement in target joint pain score at 24 hours post first dose (Low dose 1.8 mg, N = 74): 74 (100.0%)
- Patients with >=10% improvement in target joint pain score at 24 hours post first dose (Low dose 1.8 mg, N = 74): 47 (63.5%)
- Patients with >=20% improvement in target joint pain score at 24 hours post first dose (Low dose 1.8 mg, N = 74): 45 (60.8%)
- Patients with >=30% improvement in target joint pain score at 24 hours post first dose (Low dose 1.8 mg, N = 74): 39 (52.7%)
- Patients with >=40% improvement in target joint pain score at 24 hours post first dose (Low dose 1.8 mg, N = 74): 36 (48.6%)
- Patients with >=50% improvement in target joint pain score at 24 hours post first dose (Low dose 1.8 mg, N = 74): 30 (40.5%)
- Patients with >=60% improvement in target joint pain score at 24 hours post first dose (Low dose 1.8 mg, N = 74): 24 (32.4%)
- Patients with >=70% improvement in target joint pain score at 24 hours post first dose (Low dose 1.8 mg, N = 74): 20 (27.0%)
- Patients with >=80% improvement in target joint pain score at 24 hours post first dose (Low dose 1.8 mg, N = 74): 15 (20.3%)
- Patients with >=90% improvement in target joint pain score at 24 hours post first dose (Low dose 1.8 mg, N = 74): 9 (12.2%)
- Patients with >=100% improvement in target joint pain score at 24 hours post first dose (Low dose 1.8 mg, N = 74): 8 (10.8%)
- Patients achieving at least 40% relief at 24 hrs post-first dose, regardless of pain rescue (FIG. 1) (low dose 1.8 mg): 49%
- Proportion of patients rescued prior to 24 hours (low dose 1.8 mg): 28.4%
- Proportion of patients with ≧50% pain reduction at 24 hrs without pain rescue (low dose 1.8 mg): 37.8%
- Proportion of patients rescued prior to 24 hours (standard dose 4.8 mg): 34.6%
- Proportion of patients with ≧50% pain reduction at 24 hrs without pain rescue (standard dose 4.8 mg): 32.7%
